Results on eight compounds are retold here after US8440724B2, “Inhibiting neurotransmitter reuptake” (Mayo Foundation for Medical Education and Research, priority 2008, dated 2013).

For assay [1], the target named is T1, human serotonin transporter (hSERT) (Homo sapiens, UniProt P31645).
T1 construct: expressed in transfected cells; host or cells: HEK-293, stably transfected
In words: Radioligand binding to cloned hSERT, [3H]citalopram, HEK-293 cell membranes. The settings on record: for Binding at hSERT compared to PRC200-SS: in words.

Assay [2] has as its target human dopamine transporter (Homo sapiens, UniProt Q01959). In words: Inhibition of [3H]DA transport into HEK-293 cells expressing the human transporter.
In assay [3] the target is T2, human norepinephrine transporter (hNET) (Homo sapiens, UniProt P23975).
T2 construct: expressed in transfected cells; host or cells: HEK-293, stably transfected
T2 sequence (P23975 whole entry): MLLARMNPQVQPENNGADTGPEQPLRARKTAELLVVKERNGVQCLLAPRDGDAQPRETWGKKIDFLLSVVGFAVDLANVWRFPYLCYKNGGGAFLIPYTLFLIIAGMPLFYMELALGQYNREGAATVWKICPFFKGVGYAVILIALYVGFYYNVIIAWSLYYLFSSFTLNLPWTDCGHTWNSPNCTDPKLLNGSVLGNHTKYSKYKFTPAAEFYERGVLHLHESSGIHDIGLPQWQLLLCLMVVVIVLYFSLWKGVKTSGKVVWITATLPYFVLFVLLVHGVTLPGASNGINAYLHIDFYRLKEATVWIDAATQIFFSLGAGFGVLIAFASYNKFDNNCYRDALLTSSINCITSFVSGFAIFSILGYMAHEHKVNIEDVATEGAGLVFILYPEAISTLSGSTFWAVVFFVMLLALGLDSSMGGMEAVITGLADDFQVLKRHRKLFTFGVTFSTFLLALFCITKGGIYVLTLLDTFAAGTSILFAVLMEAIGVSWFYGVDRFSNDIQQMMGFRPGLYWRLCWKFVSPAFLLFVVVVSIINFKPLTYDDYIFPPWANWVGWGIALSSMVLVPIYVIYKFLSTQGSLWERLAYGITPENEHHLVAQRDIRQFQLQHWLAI
In words: Radioligand binding to cloned hNET, [3H]nisoxetine, HEK-293 cell membranes.

In assay [4] the test system is rat 5-HT, NE and DA transport, synaptosomal preparations. In words: Rat brain synaptosomal transport: rank order of potency. Type of assay: biochemical. To be noted: from Ki values; S = 5HT, N = NE, D = DA.
Assay [5] has as its system human serotonin, norepinephrine and dopamine transporters. In words: Transport into cells expressing human transporters: rank order of potency, comparison with rat. It counts as cell-based. To be noted: for Potency (rank order, transport into cells expressing human transporters): from Ki values, S = 5-HT, N = NE, D = DA; for Species selectivity: blocking transport by human vs rat serotonin and dopamine transporters: human transporters in cells vs rat synaptosomal preparations (Tables 3 and 4).

The target of assay [6] is T3, rat dopamine transporter, synaptosomal preparations (Rattus norvegicus, UniProt P23977).
T3 construct: and striatal tissues for transport of dopamine; from tissue; host or cells: rat striatum synaptosomes (male Sprague-Dawley)
T3 sequence (P23977 whole entry): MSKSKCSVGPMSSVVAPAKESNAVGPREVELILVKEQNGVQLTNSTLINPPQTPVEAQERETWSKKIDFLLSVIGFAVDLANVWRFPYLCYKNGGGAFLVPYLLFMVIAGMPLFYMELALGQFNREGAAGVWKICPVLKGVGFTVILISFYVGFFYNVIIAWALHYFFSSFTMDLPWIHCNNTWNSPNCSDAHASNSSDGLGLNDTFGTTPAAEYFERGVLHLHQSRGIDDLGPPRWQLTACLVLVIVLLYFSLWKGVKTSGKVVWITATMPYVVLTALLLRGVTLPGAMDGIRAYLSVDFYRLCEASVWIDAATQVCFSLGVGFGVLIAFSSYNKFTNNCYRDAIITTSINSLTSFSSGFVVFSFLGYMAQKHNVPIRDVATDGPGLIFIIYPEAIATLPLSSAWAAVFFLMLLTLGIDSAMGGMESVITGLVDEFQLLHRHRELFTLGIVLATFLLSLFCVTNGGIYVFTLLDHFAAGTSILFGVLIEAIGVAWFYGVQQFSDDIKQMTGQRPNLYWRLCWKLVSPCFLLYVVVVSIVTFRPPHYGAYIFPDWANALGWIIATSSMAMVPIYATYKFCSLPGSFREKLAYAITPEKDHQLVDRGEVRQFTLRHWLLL
In words: Inhibition of [3H]DA reuptake in rat brain synaptosomes (striatum). It counts as biochemical. Here is the method: (§1) The dissected tissues were separately homogenized in 20 volumes (cortical) or 40 volumes (striatal) of ice-cold, oxygenated HEPES buffer 0.32 M sucrose containing 11 mM glucose (pH 7.4) in a glass Potter-Elvehjem homogenizer with Teflon® pestle (8 strokes, 900 rpm). The homogenates were centrifuged at 1,000×g for 10 minutes. The resulting supernatant was decanted and further centrifuged at 20,000×g for 20 minutes at 4° C. […] The synaptosomal protein concentration was determined by using the BCA assay (Pierce Biotechnology Inc, Rockford, Ill.), according to the manufacturer's instructions. Synaptosomal protein (1.0-2.5 mg) was suspended in 1 mL oxygenated incubation buffer as defined above. Test amine compound was pre-incubated with the synaptosomal preparation for 30 minutes at 37° C. in a shaking water bath (80 oscillations/minute).

The test system of the next assay is hSERT, hNET, hDAT. In words: Human transporter binding: rank order and range of potency over the three transporters. To be noted: for Potency (rank-order of potency of binding; S = hSERT, N = hNET, D = hDAT): from KD values; for Potency Range (difference between most potent and least potent binding): ratio of KD over hSERT, hNET, hDAT. The text has this:
The program was modified to calculate the Hill coefficient (nH). Data are presented as geometric mean±S.E.M. of at least three independent experiments. One-component models and two-component models were compared using the root mean square error of each fit and the F test.

Assay [7] has as its target human norepinephrine transporter (Homo sapiens, UniProt P23975). In words: Inhibition of [3H]NE transport into HEK-293 cells expressing the human transporter.
Assay [8] addresses T4, rat serotonin transporter, synaptosomal preparations (Rattus norvegicus, UniProt P31652).
T4 construct: from tissue; host or cells: rat frontal cortex synaptosomes (male Sprague-Dawley)
In words: Inhibition of [3H]5-HT reuptake in rat brain synaptosomes (frontal cortex). Type of assay: biochemical. The protocol: as §1

For assay [9], the target named is T5, rat norepinephrine transport, synaptosomal preparations (Rattus norvegicus, UniProt Q63380).
T5 construct: from tissue; host or cells: rat occipital cortex synaptosomes (male Sprague-Dawley)
T5 sequence (Q63380 1-617): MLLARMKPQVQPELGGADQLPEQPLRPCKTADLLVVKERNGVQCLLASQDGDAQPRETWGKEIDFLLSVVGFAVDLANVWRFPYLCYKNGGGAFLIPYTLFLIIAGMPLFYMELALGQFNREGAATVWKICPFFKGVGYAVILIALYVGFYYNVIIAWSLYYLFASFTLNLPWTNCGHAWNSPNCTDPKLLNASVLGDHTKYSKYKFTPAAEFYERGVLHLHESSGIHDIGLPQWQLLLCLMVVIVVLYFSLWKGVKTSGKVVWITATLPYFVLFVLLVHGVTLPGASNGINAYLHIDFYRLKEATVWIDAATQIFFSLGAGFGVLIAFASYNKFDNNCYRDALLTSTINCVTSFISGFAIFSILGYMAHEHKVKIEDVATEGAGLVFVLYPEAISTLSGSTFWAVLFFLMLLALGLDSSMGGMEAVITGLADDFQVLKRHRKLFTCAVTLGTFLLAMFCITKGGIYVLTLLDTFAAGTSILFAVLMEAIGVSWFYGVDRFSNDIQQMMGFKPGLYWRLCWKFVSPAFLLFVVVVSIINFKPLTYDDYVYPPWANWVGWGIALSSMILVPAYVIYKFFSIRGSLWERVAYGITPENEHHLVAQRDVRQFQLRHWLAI
In words: Inhibition of [3H]NE reuptake in rat brain synaptosomes (occipital cortex). Type of assay: biochemical. The protocol:
as §1

Setting [10] is: Geometric Mean ± SEM, HCl salts, read-out: Equilibrium Dissociation Constant (KD) for Transporter Binding, hSERT (S).
The mark [11] stands for this setting: Geometric Mean ± SEM, HCl salts, read-out: Equilibrium Dissociation Constant (KD) for Transporter Binding, hNET (N).
Where [12] appears, read: Geometric Mean ± SEM, rat brain synaptosomes, read-out: Inhibitor Constant (Ki), DA transport.
Setting [13] is: Geometric Mean ± SEM, rat brain synaptosomes, read-out: Inhibitor Constant (Ki), 5HT transport.
Setting [14] is: Geometric Mean ± SEM, rat brain synaptosomes, read-out: Inhibitor Constant (Ki), NE transport.

Structures are written as SMILES. Like-named read-outs stand apart in the source and are kept apart here.

T1 sequence (P31645 whole entry): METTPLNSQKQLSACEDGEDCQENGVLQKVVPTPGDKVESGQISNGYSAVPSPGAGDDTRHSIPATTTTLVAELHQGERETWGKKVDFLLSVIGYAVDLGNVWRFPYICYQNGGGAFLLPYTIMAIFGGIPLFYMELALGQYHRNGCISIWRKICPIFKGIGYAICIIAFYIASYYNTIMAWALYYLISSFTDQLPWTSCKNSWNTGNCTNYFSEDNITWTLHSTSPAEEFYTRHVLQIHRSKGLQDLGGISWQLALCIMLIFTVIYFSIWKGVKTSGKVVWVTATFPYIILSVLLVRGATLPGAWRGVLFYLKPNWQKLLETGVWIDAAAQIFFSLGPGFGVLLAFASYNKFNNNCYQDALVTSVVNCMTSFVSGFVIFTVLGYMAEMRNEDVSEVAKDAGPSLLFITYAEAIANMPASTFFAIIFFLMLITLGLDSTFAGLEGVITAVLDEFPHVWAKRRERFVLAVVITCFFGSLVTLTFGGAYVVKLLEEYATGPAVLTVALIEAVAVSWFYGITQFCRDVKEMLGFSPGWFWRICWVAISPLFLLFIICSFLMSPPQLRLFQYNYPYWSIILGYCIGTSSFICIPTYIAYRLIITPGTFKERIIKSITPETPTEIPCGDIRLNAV
human norepinephrine transporter, sequence (P23975 whole entry): as the sequence (P23975 whole entry) above
human dopamine transporter, sequence (Q01959 whole entry): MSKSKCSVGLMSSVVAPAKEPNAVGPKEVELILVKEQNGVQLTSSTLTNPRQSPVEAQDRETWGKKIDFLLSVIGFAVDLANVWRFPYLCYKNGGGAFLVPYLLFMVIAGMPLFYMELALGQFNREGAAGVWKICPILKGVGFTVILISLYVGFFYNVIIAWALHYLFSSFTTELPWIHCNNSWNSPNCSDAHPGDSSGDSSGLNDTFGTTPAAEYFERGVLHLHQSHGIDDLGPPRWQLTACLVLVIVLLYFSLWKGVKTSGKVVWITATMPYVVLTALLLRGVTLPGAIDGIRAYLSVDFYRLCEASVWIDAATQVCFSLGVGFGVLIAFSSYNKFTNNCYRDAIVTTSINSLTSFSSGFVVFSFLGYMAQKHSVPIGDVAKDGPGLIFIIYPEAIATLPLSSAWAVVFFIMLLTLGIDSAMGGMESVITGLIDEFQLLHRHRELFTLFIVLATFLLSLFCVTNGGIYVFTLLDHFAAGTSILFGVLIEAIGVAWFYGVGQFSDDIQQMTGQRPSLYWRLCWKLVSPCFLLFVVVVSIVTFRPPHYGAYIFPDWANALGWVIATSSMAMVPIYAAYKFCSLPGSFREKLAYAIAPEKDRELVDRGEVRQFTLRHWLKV
T4 sequence (P31652 whole entry): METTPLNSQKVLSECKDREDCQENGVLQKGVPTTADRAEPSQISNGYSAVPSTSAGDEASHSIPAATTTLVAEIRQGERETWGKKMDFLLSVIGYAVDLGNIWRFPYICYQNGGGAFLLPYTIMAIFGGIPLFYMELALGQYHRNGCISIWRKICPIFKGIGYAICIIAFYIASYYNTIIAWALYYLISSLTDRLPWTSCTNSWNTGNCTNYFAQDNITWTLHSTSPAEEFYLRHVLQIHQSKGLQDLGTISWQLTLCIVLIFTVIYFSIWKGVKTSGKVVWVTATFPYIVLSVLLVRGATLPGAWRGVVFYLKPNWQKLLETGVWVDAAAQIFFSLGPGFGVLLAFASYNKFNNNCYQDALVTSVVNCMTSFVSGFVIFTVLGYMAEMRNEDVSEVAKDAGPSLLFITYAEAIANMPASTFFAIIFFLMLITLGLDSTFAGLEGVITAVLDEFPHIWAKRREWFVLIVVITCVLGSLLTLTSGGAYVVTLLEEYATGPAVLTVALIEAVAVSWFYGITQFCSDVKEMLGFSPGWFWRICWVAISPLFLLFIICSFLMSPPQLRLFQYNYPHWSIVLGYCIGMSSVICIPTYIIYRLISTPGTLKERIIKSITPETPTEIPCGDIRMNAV

In the case of `CNC[C@H](c1ccc2ccccc2c1)[C@@H](N=[N+]=[N-])c1ccccc1` [MCJ001-N3-RS, (2S,3R)-3-azido-N-methyl-2-(naphthalen-2-yl)-3-phenylpropan-1-amine], the Kd in assay [1] (setting [10]) amounted to 124 ± 9 nM; in assay [3] (setting [11]) it was 64 ± 7 nM. The Ki in [2] amounted to 64 nM; in assay [6] (setting [12]) it was 270 ± 50 nM; in assay [7], 24 ± 4 nM; in assay [8] (setting [13]) it was 88 ± 10 nM; in assay [9] (setting [14]), 56 ± 3 nM. In [4], the “Potency (rank order, transport into rat brain synaptosomal preparations)” value was “N > S > D”. Further, in assay [5], the “Potency (rank order, transport into cells expressing human transporters)” value was “N > S > D”. Moreover, the “Potency (rank-order of potency of binding; S = hSERT, N = hNET, D = hDAT)” value in the assay with hSERT, hNET, hDAT is “N > S > D”. The “Potency Range (difference between most potent and least potent binding)” value in the assay on hSERT, hNET, hDAT came out at 3.0 fold.

In the case of `CNC[C@@H](c1ccc2ccccc2c1)[C@H](F)c1ccccc1` [MCJ001-F-SR, (2R,3S)-3-fluoro-N-methyl-2-(naphthalen-2-yl)-3-phenylpropan-1-amine], the results for the Kd in [1] and in assay [3] were 130 ± 20 nM and 430 ± 70 nM, respectively. Also, the “Binding at hSERT compared to PRC200-SS” value in assay [1] was “much more weakly at hNET and hSERT”. Moreover, the “Binding at hNET compared to PRC200-SS” value in assay [3] (in words) is “much more weakly at hNET and hSERT”. The “Potency (rank order, transport into rat brain synaptosomal preparations)” value in [4] is given as “S > N > D”. Further, the Ki in [6] (setting [12]) was 130 ± 20 nM; in [8] it was 53 ± 12 nM; in assay [9] (setting [14]), 110 ± 20 nM. The “Potency (rank-order of potency of binding; S = hSERT, N = hNET, D = hDAT)” value in the assay on hSERT, hNET, hDAT is “D > S > N”; with hSERT, hNET, hDAT (listed as MCJ001-F—SR), “D>S>N”. Further, the “Potency Range (difference between most potent and least potent binding)” value in the assay with hSERT, hNET, hDAT was determined as 12 fold.

Consider `CNC[C@H](c1ccc2ccccc2c1)[C@H](OCCCCCO[C@H](c1ccccc1)[C@H](CNC)c1ccc2ccccc2c1)c1ccccc1` [MCJ001-Dimer5-SS, (2S,2′S,3S,3′S)-3,3′-(pentane-1,5-diylbis(oxy))bis(N-methyl-2-(naphthalen-2-yl)-3-phenylpropan-1-amine)], for which the Kd in [1] (setting [10]) amounted to 140 ± 30 nM; in [3] (setting [11]), 160 ± 30 nM. Besides, the Ki in assay [2] was 52 nM; in [6] (setting [12]), 800 ± 300 nM; in assay [7], 720 nM; in assay [8] (setting [13]) it was 150 ± 10 nM; in assay [9] (setting [14]) it was 200 ± 30 nM. Besides, the “Potency (rank order, transport into rat brain synaptosomal preparations)” value in assay [4] is listed as “S > N > D”. Further, the “Potency (rank order, transport into cells expressing human transporters)” value in [5] is reported as “S > D > N”. Further, the “Species selectivity: blocking transport by human vs rat serotonin and dopamine transporters” value in [5] is “much more potent at blocking transport by the human serotonin and dopamine transporters”. Also, in the assay on hSERT, hNET, hDAT, the “Potency (rank-order of potency of binding; S = hSERT, N = hNET, D = hDAT)” value was “D > S > N”. Besides, in the assay on hSERT, hNET, hDAT, the “Potency Range (difference between most potent and least potent binding)” value amounted to 1.4 fold.

Regarding `CNC[C@@H](c1ccc2ccccc2c1)[C@H](N=[N+]=[N-])c1ccccc1` [MCJ001-N3-SR, (2R,3S)-3-azido-N-methyl-2-(naphthalen-2-yl)-3-phenylpropan-1-amine], the Kd in [1] (setting [10]) turned out to be 380 ± 40 nM; in [3] (setting [11]), 700 ± 100 nM. The Ki in assay [2] is 77 nM; in [6] (setting [12]), 2000 ± 300 nM; in assay [7], 1400 nM; in [8] (setting [13]), 640 ± 50 nM; in [9] (setting [14]), 250 ± 20 nM. Further, the “Potency (rank order, transport into rat brain synaptosomal preparations)” value in [4] is recorded as “N > S > D”. The “Potency (rank order, transport into cells expressing human transporters)” value in [5] is “S > D > N”. Also, the “Species selectivity: blocking transport by human vs rat serotonin and dopamine transporters” value in assay [5] was “much more potent at blocking transport by the human serotonin and dopamine transporters”. For the same compound, the “Potency (rank-order of potency of binding; S = hSERT, N = hNET, D = hDAT)” value in the assay with hSERT, hNET, hDAT is given as “S > N > D”. Also, the “Potency Range (difference between most potent and least potent binding)” value in the assay on hSERT, hNET, hDAT is listed as 3.8 fold.

In the case of `CNC[C@H](c1ccc2ccccc2c1)[C@@H](F)c1ccccc1` [MCJ001-F-RS, (2S,3R)-3-fluoro-N-methyl-2-(naphthalen-2-yl)-3-phenylpropan-1-amine], the Kd in assay [1] was 2.8 ± 0.3 nM; in assay [3], 0.9 ± 0.1 nM. For the same compound, in assay [1], the “Binding at hSERT compared to PRC200-SS” value is recorded as “greater binding at hSERT”. Besides, the Ki in assay [2] stood at 30 ± 5 nM; in assay [6], 58 ± 6 nM; in assay [7], 4.8 nM; in assay [8], 9 ± 1.5 nM; in [9] it was 9 ± 1 nM. For the same compound, in [4], the “Potency (rank order, transport into rat brain synaptosomal preparations)” value is “S = N > D”. Also, the “Potency (rank order, transport into cells expressing human transporters)” value in [5] was “S > N > D”. Further, the “Potency (rank-order of potency of binding; S = hSERT, N = hNET, D = hDAT)” value with hSERT, hNET, hDAT was “N > S > D”. The “Potency Range (difference between most potent and least potent binding)” value with hSERT, hNET, hDAT was determined as 21 fold.

On to `CN(C)C[C@H](c1ccc2ccccc2c1)[C@H](N)c1ccccc1` [MCJ002-NH2-SS, (2S,3S)-N1,N1-dimethyl-2-(naphthalen-2-yl)-3-phenylpropane-1,3-diamine], for which, in assay [1] (setting [10]), the Kd was 2.4 ± 0.3 nM. Moreover, in assay [1], the “Binding at hSERT compared to PRC200-SS” value is on record as “greater binding at hSERT”. Moreover, in assay [3] (setting [11]), the Kd is 12.6 ± 0.9 nM. The “Occupancy of hNET binding sites” value in assay [3] (when the compound occupies 95% of hSERT binding sites, calculation based on occupancy theory) is reported as 79%. In the assay with hSERT, hNET, hDAT, the “Potency (rank-order of potency of binding; S = hSERT, N = hNET, D = hDAT)” value is “S > D > N”; the “Potency Range (difference between most potent and least potent binding)” value was determined as 5.3 fold.

Regarding `CNCC(c1ccc2ccccc2c1)C(F)c1ccccc1` (racemic) [MCJ001-F-(±)-RR, (2R,3R/2S,3S)-3-fluoro-N-methyl-2-(naphthalen-2-yl)-3-phenylpropan-1-amine], the Kd in assay [1] was 3.9 ± 0.1 nM; in [3], 4.5 ± 0.8 nM. The “Binding at hSERT compared to PRC200-SS” value in assay [1] was “greater binding at hSERT”. The Ki in assay [2] was found to be 33 ± 1 nM; in [6] (setting [12]), 250 ± 9 nM; in assay [7], 2.1 ± 0.5 nM; in assay [8] it was 90 ± 7 nM; in [9], 47 ± 5 nM. In [4], the “Potency (rank order, transport into rat brain synaptosomal preparations)” value is recorded as “N > S > D”. For the same compound, the “Potency (rank order, transport into cells expressing human transporters)” value in assay [5] was “N > S > D”. The “Potency (rank-order of potency of binding; S = hSERT, N = hNET, D = hDAT)” value in the assay on hSERT, hNET, hDAT is “S > N > D”. In addition, the “Potency Range (difference between most potent and least potent binding)” value with hSERT, hNET, hDAT amounted to 36 fold.

In the case of `CNC[C@H](c1ccc2ccccc2c1)[C@H](OC)c1ccccc1` [MCJ001-OMe-SS, (2S,3S)-3-methoxy-N-methyl-2-(naphthalen-2-yl)-3-phenylpropan-1-amine], the Kd came to 13 ± 2 nM in assay [1] (setting [10]) and 1.4 ± 0.2 nM in [3] (setting [11]). Further, the Ki stood at 21 ± 3 nM in assay [2]; 46 ± 5 nM in assay [6] (setting [12]); 1.2 ± 0.2 nM in assay [7]; 12.8 ± 0.9 nM in assay [8] (setting [13]); 24 ± 2 nM in [9] (setting [14]). Besides, the “Potency (rank order, transport into rat brain synaptosomal preparations)” value in assay [4] is recorded as “S > N > D”. Also, the “Potency (rank order, transport into cells expressing human transporters)” value in assay [5] was “N > S > D”. Besides, the “Potency (rank-order of potency of binding; S = hSERT, N = hNET, D = hDAT)” value in the assay with hSERT, hNET, hDAT is “N > S > D”. In addition, the “Potency Range (difference between most potent and least potent binding)” value with hSERT, hNET, hDAT was found to be 29 fold.

What is called Kd is the constant that tells how readily two partners part at equilibrium. What is called Ki is the dissociation constant of the complex between target and ligand, obtained from inhibition or displacement.
